Experimental data: ChEMBL document CHEMBL5291721, “A preclinical secondary pharmacology resource illuminates target-adverse drug reaction associations of marketed drugs” (Nat Commun, 2023)

Key:
[1] = target: T1, Equilibrative nucleoside transporter 1 (Homo sapiens, UniProt Q99808)
T1 sequence (Q99808 whole entry): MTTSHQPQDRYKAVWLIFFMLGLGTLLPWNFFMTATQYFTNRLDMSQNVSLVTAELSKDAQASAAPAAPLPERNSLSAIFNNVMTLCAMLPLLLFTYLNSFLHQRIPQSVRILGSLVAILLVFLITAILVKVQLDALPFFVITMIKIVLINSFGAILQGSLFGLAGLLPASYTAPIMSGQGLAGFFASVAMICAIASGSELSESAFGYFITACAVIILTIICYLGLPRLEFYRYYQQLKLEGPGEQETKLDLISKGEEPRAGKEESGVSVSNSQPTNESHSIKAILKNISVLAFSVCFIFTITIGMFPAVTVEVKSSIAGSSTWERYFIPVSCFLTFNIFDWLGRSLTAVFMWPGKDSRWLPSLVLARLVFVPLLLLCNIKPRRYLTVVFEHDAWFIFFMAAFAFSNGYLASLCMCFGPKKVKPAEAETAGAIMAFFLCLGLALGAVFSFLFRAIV

[2] = target: Beta-2 adrenergic receptor (Homo sapiens, UniProt P07550)
Beta-2 adrenergic receptor, sequence (P07550 whole entry): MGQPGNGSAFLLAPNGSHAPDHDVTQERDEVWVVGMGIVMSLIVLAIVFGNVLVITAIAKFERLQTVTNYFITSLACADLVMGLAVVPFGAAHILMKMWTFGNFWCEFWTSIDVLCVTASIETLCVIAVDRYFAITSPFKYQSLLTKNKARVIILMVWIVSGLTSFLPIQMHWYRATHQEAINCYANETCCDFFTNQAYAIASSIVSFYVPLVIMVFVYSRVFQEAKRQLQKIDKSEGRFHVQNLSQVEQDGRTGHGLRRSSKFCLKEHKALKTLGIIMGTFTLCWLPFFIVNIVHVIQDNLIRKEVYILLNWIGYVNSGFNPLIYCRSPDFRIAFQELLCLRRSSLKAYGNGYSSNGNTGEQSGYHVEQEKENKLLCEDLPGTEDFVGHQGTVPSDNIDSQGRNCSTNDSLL

Thromboxane A2 receptor = target: T2, Thromboxane A2 receptor (Homo sapiens, UniProt P21731)
T2 sequence (P21731 whole entry): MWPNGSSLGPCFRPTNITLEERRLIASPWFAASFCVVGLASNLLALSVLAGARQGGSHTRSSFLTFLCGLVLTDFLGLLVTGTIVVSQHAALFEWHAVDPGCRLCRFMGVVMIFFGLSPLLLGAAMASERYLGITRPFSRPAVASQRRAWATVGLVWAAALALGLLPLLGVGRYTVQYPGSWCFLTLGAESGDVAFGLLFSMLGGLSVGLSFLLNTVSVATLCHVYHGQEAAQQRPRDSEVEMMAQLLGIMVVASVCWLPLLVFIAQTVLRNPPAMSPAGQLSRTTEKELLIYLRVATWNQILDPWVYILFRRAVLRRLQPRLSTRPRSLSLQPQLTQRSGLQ

[3] = target: Growth hormone secretagogue receptor type 1 (Homo sapiens, UniProt Q92847)
Growth hormone secretagogue receptor type 1, sequence (Q92847 whole entry): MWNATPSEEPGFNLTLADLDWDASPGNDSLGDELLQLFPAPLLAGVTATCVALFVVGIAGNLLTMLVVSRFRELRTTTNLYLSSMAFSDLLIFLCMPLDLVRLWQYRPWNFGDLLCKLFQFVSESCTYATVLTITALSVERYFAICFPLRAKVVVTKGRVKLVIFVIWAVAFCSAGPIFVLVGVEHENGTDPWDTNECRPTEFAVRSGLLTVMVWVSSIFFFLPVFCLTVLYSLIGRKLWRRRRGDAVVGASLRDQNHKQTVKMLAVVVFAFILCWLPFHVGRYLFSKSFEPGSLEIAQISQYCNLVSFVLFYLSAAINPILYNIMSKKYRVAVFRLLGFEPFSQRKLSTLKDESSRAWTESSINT

[4] = target: T3, Muscarinic acetylcholine receptor M2 (Homo sapiens, UniProt P08172); format: functional, cell-based
T3 sequence (P08172 whole entry): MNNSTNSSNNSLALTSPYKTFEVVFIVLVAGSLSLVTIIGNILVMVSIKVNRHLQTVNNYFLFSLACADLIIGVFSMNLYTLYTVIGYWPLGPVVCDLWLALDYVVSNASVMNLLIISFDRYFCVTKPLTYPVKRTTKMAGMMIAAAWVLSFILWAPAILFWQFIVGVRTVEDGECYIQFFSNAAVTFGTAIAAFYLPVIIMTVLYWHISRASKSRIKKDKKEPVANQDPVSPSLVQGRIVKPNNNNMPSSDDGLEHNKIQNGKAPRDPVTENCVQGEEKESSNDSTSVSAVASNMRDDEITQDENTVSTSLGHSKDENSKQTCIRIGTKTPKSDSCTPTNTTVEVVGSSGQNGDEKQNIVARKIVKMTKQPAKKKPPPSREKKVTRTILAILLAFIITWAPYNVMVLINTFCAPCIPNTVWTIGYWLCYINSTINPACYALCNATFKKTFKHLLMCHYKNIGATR

[5] = target: Sodium-dependent dopamine transporter (Homo sapiens, UniProt Q01959)
Sodium-dependent dopamine transporter, sequence (Q01959 whole entry): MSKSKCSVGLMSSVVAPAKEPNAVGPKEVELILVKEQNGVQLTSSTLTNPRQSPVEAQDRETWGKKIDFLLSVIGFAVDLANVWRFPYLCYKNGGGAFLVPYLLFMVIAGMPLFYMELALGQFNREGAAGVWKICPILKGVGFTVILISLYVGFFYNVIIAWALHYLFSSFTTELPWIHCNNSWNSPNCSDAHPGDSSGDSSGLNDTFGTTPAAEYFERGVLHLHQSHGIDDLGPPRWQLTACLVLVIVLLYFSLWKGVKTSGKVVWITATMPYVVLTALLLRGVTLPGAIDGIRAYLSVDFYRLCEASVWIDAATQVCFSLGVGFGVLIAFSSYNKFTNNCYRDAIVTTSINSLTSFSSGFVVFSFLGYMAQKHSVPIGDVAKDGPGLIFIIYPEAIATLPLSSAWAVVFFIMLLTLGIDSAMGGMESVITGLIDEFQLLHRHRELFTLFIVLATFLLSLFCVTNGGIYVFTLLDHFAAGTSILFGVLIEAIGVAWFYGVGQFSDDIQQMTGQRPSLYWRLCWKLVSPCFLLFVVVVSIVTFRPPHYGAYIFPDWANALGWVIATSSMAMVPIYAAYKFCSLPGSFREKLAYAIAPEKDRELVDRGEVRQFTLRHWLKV

[6] = target: Gamma-aminobutyric acid receptor subunit alpha-1 (Rattus norvegicus, UniProt P62813)
Gamma-aminobutyric acid receptor subunit alpha-1, sequence (P62813 whole entry): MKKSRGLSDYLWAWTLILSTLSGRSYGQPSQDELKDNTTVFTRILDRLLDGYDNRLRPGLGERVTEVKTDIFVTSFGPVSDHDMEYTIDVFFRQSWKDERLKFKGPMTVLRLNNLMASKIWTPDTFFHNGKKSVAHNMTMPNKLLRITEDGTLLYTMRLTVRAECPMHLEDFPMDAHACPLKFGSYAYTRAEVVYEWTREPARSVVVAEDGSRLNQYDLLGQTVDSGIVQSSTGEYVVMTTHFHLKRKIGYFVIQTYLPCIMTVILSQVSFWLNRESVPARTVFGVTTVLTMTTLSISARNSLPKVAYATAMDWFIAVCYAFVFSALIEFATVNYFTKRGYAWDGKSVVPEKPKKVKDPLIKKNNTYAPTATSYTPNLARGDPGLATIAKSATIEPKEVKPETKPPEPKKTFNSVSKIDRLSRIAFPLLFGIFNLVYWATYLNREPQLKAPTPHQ

Vasopressin V1a receptor = Vasopressin V1a receptor (Homo sapiens, UniProt P37288)
Vasopressin V1a receptor, sequence (P37288 whole entry): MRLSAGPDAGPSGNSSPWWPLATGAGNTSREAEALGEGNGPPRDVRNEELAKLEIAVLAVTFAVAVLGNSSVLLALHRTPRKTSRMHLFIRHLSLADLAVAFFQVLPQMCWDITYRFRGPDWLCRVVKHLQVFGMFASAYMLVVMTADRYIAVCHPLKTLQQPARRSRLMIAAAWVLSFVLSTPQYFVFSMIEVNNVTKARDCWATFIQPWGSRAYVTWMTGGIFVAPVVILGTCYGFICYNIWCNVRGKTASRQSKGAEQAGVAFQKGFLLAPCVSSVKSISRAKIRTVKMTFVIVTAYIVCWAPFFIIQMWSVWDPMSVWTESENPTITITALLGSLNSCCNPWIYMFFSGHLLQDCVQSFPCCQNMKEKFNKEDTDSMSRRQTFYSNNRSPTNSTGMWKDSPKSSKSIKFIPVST

[7] = target: Sodium-dependent noradrenaline transporter (Homo sapiens, UniProt P23975)
Sodium-dependent noradrenaline transporter, sequence (P23975 whole entry): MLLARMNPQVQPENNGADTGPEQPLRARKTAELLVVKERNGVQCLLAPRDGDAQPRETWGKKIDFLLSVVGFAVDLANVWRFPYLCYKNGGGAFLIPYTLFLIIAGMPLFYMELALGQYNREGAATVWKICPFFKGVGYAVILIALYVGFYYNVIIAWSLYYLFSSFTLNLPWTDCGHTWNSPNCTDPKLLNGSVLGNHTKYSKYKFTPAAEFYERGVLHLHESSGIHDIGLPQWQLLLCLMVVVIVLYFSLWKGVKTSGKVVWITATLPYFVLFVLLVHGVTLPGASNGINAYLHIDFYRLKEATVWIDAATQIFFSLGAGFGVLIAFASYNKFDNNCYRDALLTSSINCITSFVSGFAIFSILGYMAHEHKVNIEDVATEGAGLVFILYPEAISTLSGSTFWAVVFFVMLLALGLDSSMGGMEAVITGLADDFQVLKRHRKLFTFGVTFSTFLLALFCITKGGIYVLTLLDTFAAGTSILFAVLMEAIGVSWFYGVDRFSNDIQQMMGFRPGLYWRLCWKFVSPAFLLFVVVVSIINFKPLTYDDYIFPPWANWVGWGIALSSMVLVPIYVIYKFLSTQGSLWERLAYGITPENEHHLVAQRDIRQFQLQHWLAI

[8] = target: 5-hydroxytryptamine receptor 2B (Homo sapiens, UniProt P41595); format: functional, cell-based
5-hydroxytryptamine receptor 2B, sequence (P41595 whole entry): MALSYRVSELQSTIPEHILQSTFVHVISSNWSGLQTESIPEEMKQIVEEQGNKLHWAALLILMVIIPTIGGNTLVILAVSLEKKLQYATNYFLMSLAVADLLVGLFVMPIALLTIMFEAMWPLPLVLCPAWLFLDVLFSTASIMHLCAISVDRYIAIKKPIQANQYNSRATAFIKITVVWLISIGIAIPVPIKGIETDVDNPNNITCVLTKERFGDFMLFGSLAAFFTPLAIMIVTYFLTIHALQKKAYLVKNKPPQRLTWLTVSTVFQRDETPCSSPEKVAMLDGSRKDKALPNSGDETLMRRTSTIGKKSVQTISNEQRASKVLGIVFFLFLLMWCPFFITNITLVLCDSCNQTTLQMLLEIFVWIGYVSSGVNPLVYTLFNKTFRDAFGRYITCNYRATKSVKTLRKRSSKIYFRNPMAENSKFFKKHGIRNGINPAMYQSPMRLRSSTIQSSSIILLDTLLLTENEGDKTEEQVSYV

[9] = target: T4, Gastrin/cholecystokinin type B receptor (Homo sapiens, UniProt P32239)
T4 sequence (P32239 whole entry): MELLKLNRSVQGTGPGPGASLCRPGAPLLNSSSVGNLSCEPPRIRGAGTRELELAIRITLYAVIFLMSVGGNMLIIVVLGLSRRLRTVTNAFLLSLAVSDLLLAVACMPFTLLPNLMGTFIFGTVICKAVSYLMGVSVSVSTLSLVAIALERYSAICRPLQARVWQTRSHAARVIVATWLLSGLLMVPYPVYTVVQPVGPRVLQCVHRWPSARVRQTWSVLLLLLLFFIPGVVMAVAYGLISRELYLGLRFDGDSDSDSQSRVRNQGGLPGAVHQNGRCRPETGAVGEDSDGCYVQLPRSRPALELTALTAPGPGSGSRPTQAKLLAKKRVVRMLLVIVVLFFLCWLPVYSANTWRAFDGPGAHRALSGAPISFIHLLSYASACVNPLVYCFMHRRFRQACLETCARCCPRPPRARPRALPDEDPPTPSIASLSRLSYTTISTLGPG

Glucocorticoid receptor = target: T5, Glucocorticoid receptor (Homo sapiens, UniProt P04150)
T5 sequence (P04150 whole entry): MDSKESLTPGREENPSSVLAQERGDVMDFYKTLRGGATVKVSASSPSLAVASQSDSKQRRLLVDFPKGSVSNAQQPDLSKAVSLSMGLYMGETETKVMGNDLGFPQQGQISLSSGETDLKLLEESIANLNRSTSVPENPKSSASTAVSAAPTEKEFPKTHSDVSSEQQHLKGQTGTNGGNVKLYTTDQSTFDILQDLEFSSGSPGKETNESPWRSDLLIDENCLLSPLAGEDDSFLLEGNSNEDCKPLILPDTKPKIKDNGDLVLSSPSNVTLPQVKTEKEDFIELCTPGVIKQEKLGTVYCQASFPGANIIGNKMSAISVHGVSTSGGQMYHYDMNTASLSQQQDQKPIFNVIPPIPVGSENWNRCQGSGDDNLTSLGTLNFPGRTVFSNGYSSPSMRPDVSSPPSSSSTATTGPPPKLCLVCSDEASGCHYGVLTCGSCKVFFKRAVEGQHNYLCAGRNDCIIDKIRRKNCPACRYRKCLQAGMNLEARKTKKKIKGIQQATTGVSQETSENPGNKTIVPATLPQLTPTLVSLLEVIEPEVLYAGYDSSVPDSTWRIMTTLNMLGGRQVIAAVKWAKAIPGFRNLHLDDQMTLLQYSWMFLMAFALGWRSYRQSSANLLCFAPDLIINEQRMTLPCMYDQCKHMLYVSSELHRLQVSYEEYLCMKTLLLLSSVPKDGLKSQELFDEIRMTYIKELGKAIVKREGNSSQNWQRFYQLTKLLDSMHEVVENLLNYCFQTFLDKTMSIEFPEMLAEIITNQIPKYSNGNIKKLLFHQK
Further: assay procedure not described here.

SMILES | AC50 [1] [µM] | AC50 [2] [µM] | AC50 (Thromboxane A2 receptor) [µM] | AC50 [3] [µM] | AC50 [4] [µM] | AC50 [5] [µM] | AC50 [6] [µM] | AC50 (Vasopressin V1a receptor) [µM] | AC50 [7] [µM] | AC50 [8] [µM] | AC50 [9] [µM] | AC50 (Glucocorticoid receptor) [µM]
Oc1cc(O)c(Cl)cn1 | > 30 | > 30 | > 30 | > 30 | > 30 | > 30 | > 30 | > 30 | > 30 | > 30 | > 30 | 
Cc1cc(=O)n(-c2ccccc2)n1C [ANTIPYRINE] | > 30 | > 10 | > 30 | > 30 | > 10 | > 30 | > 10 |  | > 30 | > 10 | > 30 | 
CO/N=C(\C(=O)N[C@@H]1C(=O)N2C(C(=O)O)=CCS[C@H]12)c1csc(N)n1 [CEFTIZOXIME] | > 30 |  |  | > 30 | > 30 | > 30 |  | > 30 | > 30 | > 30 | > 30 | > 30
CO/N=C(\C(=O)N[C@@H]1C(=O)N2C(C(=O)O)=C(CSc3nc(=O)c(=O)[nH]n3C)CS[C@H]12)c1csc(N)n1 [CEFTRIAXONE] | > 30 |  |  | > 30 | > 30 | > 30 |  | > 30 | > 30 | > 30 | > 30 | > 30
C[C@@H]1C[C@H]2[C@@H]3CCC4=CC(=O)C=C[C@]4(C)[C@@]3(F)[C@@H](O)C[C@]2(C)[C@@]1(O)C(=O)CO [DEXAMETHASONE] | > 30 | > 30 | > 30 | > 30 | > 10 | > 30 | > 10 | > 30 | > 30 | > 10 | > 30 | 
Oc1ccc(CCNCCCCCCNCCc2ccccc2)cc1O [DOPEXAMINE] | > 30 | 3.8 | > 30 | > 30 | > 30 | 0.5 | > 30 | > 30 | 0.4 | > 30 | > 30 | 
CC(C)NC[C@H](O)COc1ccc(CC(N)=O)cc1 [ESATENOLOL] | > 30 |  | > 30 | > 30 |  |  |  | > 10 | > 10 |  | > 30 | 
CCOC(=O)c1ncn2c1CN(C)C(=O)c1cc(F)ccc1-2 [FLUMAZENIL] | > 30 | > 30 | > 30 | > 30 | > 30 | > 30 |  |  | > 30 | > 30 | > 30 | 
O=C(NCCO[N+](=O)[O-])c1cccnc1 [NICORANDIL] | > 30 |  | > 30 | > 30 | > 30 | > 30 | > 30 | > 30 | > 30 | > 30 | > 30 | > 30
O=c1[nH]c2ccccc2n1CCCN1CCN(C(c2ccccc2)c2ccccc2)CC1 [OXATOMIDE] |  |  | > 30 | 8.8 | 6.6 | 0.9 | > 30 | 22 | 3.2 | > 30 | > 30 | > 30
COc1cc2[nH]c(C)c(CCN3CCN(c4ccccc4)CC3)c2cc1OC [OXYPERTINE] | > 30 |  | > 30 | > 30 | > 30 | 2.3 | > 30 | > 30 | 14 | > 30 | > 30 | > 30
c1ccc(C2(N3CCCCC3)CCCCC2)cc1 [PHENCYCLIDINE] | > 30 |  | > 30 | > 30 | > 30 | 2.6 |  | > 30 | 12 | > 30 | > 30 | > 30
CCC(=O)O[C@](Cc1ccccc1)(c1ccccc1)[C@H](C)CN(C)C [PROPOXYPHENE] | > 30 | > 10 | > 30 | > 30 | > 10 | > 10 | > 10 | > 10 | > 10 | > 10 | > 30 | 
O=c1c(O)c(-c2ccc(O)c(O)c2)oc2cc(O)cc(O)c12 [QUERCETIN] | > 30 |  | > 30 | > 30 | 10 |  |  | > 30 |  | > 30 | > 30 | 
CCCN1CCCC[C@H]1C(=O)Nc1c(C)cccc1C [ROPIVACAINE] | > 30 | > 30 | > 30 | > 30 | > 30 | > 30 | > 30 | > 30 | > 30 | > 30 | > 30 | 
CCOC(=O)[C@@H](N)Cc1ccc(-c2cc(O[C@H](c3ccc(Cl)cc3-n3ccc(C)n3)C(F)(F)F)nc(N)n2)cc1 [TELOTRISTAT ETHYL] | > 30 |  |  | 28 | > 30 | 18 | > 30 | > 30 | 16 | > 30 | > 30 | 23
CC(C)(C)NCC(O)c1ccccc1Cl (configuration not stated) [TULOBUTEROL] |  |  | > 30 | > 30 | > 30 | > 30 | > 30 | > 30 | > 30 | > 30 | > 30 | > 30
